Patent publication US20110237633A1, “SMALL MOLECULE MODULATORS OF HEPATOCYTE GROWTH FACTOR (SCATTER FACTOR) ACTIVITY” (priority 2008, published 2011)

Columns and labels:
[1] = system: Endothelial cells (HUVECs); assay: Assessment of HGF/SF-like activity: HUVEC proliferation (3H thymidine incorporation / Cell titer Glo); assay type: cell-based, human; conditions: test compounds 10 μM (or 0.01 to 25 micromolar), 24 hr; growth compared to 50 ng/mL HGF control
Procedure: 1. Assessment of HGF/SF-like activity: The following assay is performed to assess the HGF/SF-like activity of the compounds of the invention. Endothelial cells (HUVECs) are seeded in 48 well plates at a density of 10,000 to 20,000 cells per well in the normal growth medium (EGM-2-Clonetics) containing 2% fetal bovine serum, FGF, VEGF, IGF, ascorbic acid, EGF, GA, heparin and hydrocortisone. The cells are grown normally in the growth medium for 24 hr at 37° C. and 5% CO2. The cells are then rinsed with RPMI-1% BSA and are starved for 1-2 hrs. The stock solutions of the compounds of the invention are made at a concentration of 10 mg/ml in DMSO and are diluted in RPMI-1% BSA at a final concentrations of 0.01 micromolar to 25 micromolar. The cells are then washed and are treated with the compounds and are incubated for another 24 hr at 37° C. Then ^3H thymidine (0.5 microgram/ml in RPMI-BSA) is added to the cells and they are incubated at 37° C. for 4 to 5 hours. The unincorporated thymidine is removed by washing the cells four times with 1×PBS. Then the cells are lysed with 0.5M NaOH for 30 min and the radioactivity is counted in the beta counter. A similar proliferation assay using monkey bronchial epithelial cells (4 MBR-5) is also employed.
In another assay format, HUVEC cells were grown in EGM-2 medium (Lonza) with 5% FBS to 80% confluence at 37° C. and in 5% CO2. Cells were plated in a white opaque flat bottom 96 well plate at a density of 10000 cells per well and in a volume of 100 μL, and incubated overnight and starved by washing twice in serum-free EGM-2 media. After 2 hours, cells were treated with 100 μL EGM-2 medium containing 10 μM test compounds and incubated for an additional 24 hours at 37° C. (All compounds were in DMSO and the final concentration of DMSO in the assay was 0.1%). In all experiments, serum (5%) and HGF (50 ng/mL final) were run as positive controls and DMSO vehicle was run as a negative control. 10 μL Cell titer Glo reagent (Promega) was added to each well and plates were mixed by gentle tapping. After 10 minutes at room temperature, plates were read on a Packard Top Count Luminescence plate reader. Proliferation was expressed as a percentage of growth compared to 50 ng/mL HGF control, with the DMSO control representing 0% growth and the HGF control representing 100% growth.

[2] = system: LX2 cells (collagen I mRNA); assay: Antifibrotic activity: collagen I mRNA by real time PCR in LX2 hepatic stellate cells; assay type: cell-based, human; conditions: serum starved LX2 cells, 24 hours, HGF 100 ng/ml
Procedure: 2. Antifibrotic Activity of HGF and compounds of the invention in vitro and in vivo. The antifibrotic effects of HGF and compounds of the invention in the immortalized human hepatic stellate cell line LX2 are determined. Serum starved LX2 cells are treated for 24 hours with HGF at 100 ng/ml and compounds of the invention at doses ranging from 12 to 24 ug/ml. RNA is then isolated and real time PCR is performed to evaluate changes in collagen I mRNA. Results typically indicate a 90% and 70% decrease in collagen I mRNA expression in cells treated with instant compounds and HGF, respectively. Additional experiments to determine the effects of HGF and compounds on TGFb-1, bPDGF-R and MMP-1 mRNA are also performed to more completely characterize activities of these compounds which can contribute to their antifibrotic effects.

[3] = MTT cell viability assay, protection from adriamycin-induced apoptosis; conditions: dog, MDCK cells
Procedure: (§1) Using the MTT cell viability assay the ability of compounds of the invention to protect cells from adriamycin-induced apoptosis is tested.

Procedure for MDCK cells: as §1

| Compound | HGF/SF-like activity (HUVEC proliferation) [1] | further results |
| --- | --- | --- |
| c1ccc2cc(-c3nnn[nH]3)ccc2c1 [5-(naphthalen-2-yl)-1H-tetrazole] | active |  |
| Nc1ccc(C=Cc2nc3cc(N)ccc3[nH]2)cc1 [2-(4-aminostyryl)-1H-benzo[d]imidazol-5-amine] | active |  |
| C(=Cc1nnn[nH]1)c1ccccc1 [5-styryl-1H-tetrazole] | active |  |
| CS(=O)(=O)Nc1ccc(-c2ccc3nc[nH]c3c2)cc1 [N-(4-(1H-benzo[d]imidazol-6-yl)phenyl)methanesulfonamide] | active |  |
| C(=Cc1ncc[nH]1)c1ccccc1 [2-styryl-1H-imidazole] | active |  |
| c1cc(-c2ccc3cn[nH]c3c2)co1 [6-(furan-3-yl)-1H-indazole] | active |  |
| c1ccc2cc(-c3ncc[nH]3)ccc2c1 [2-(naphthalen-2-yl)-1H-imidazole] | active |  |
| CC(C)N1CC(c2nc(-c3ccc4ccccc4c3)c[nH]2)CC1=O (centres unmarked) [1-isopropyl-4-(4-(naphthalen-2-yl)-1H-imidazol-2-yl)pyrrolidin-2-one] | active |  |
| CCn1c(C)nc2cc(-c3ccccc3)ccc21 [1-ethyl-2-methyl-5-phenyl-1H-benzo[d]imidazole] | active |  |
| c1cc(-c2ccc3cn[nH]c3c2)cs1 [6-(thiophen-3-yl)-1H-indazole] | active |  |
| HGF: Scatter factor / hepatocyte growth factor, pleiotropic growth factor used as positive control |  | decrease in collagen I mRNA expression [2]: 70%; cell viability after pretreatment, then adriamycin (MDCK cells): 94% |
| C(=Cc1cccs1)c1ccc[nH]1 [2-(2-(thiophen-2-yl)vinyl)-1H-pyrrole] | active |  |
| CSc1nnc(C=Cc2cccs2)[nH]1 [3-(methylthio)-5-(2-(thiophen-2-yl)vinyl)-4H-1,2,4-triazole] | active |  |
| COc1cccc2c1C(=O)c1c(O)c3c(c(O)c1C2=O)C[C@@](O)(C(=O)CO)C[C@@H]3O[C@H]1C[C@H](N)[C@H](O)[C@H](C)O1 [Adriamycin, adriamycin] |  | viability [3]: 56% |
| c1csc(-c2ccc3cn[nH]c3c2)c1 [6-(thiophen-2-yl)-1H-indazole] | active |  |
| C(=Cc1cnc[nH]1)c1ccccc1 [5-styryl-1H-imidazole] | active |  |
| c1coc(-c2ccc3cn[nH]c3c2)c1 [6-(furan-2-yl)-1H-indazole] | active |  |
| Nc1nnc(C=Cc2ccccc2)[nH]1 [5-styryl-4H-1,2,4-triazol-3-amine] | active |  |
| c1ccc2cc(-c3cnc[nH]3)ccc2c1 [5-(naphthalen-2-yl)-1H-imidazole] | active |  |
